The values that follow come from article PMC4376724, “Differential Phenotypic and Functional Profiles of TcCA-2 -Specific Cytotoxic CD8^+ T Cells in the Asymptomatic versus Cardiac Phase in Chagasic Patients” (PLoS ONE, 2015).

Values joined by “and” are separate entries in the source; they are usually repeats but may differ in a detail not shown here. Equal values may be shown once.

One assay has as its target HLA-A*02:01 (Homo sapiens, UniProt P04439, D140Y/D185E/D98H/E176V/E277Q/G131W/G231S/I119V/I121R/I166T/I218V/L300P/L318F/N151K/N90K/P208A/P217A/Q86G/Q94H/R138H/R169H/T345S). The experiment in a line: HLA-A*02:01 binding assay (surface stabilization on TAP-deficient T2 cells). As to conditions: different peptide concentrations in duplicate, serum-free RPMI, overnight at room temperature, PE anti-HLA-A2 (BB7.2) flow cytometry, referred to 25 μM HB-ENV335-343 peptide. How it is done: TAP-deficient T2 cells were used for the HLA-A*02:01 binding assays and the K562-A2 cells for the HLA-A*02:01 restriction assay. The cells were cultured in complete RPMI medium supplemented with 10% of inactivated Fetal Calf Serum (iFCS), 2 mM glutamine, and 100 U/ml penicillin. K562-A2 cells, expressing the HLA-A*02:01 molecule were cultured in the presence of […] of G-418, as previously described. The T2 and K562-A2 cells were kindly provided by Dr. Pedro Romero (University of Lausanne) and by Dr Peter Ponsaerts (University of Antwerp, with the permission of Dr. Cedrik Britten from Johanes Gutenberg-University Mainz), respectively.
HLA-A*02:01 surface stabilization test was carried out as described in [42]. Briefly, TAP-deficient T2 cells were loaded with different concentrations of each peptide, in duplicate in serum-free RPMI medium, and incubated overnight at room temperature. Afterwards, the cells were stained with a PE-labeled HLA-A2-specific antibody (BB7.2 clone, BD biosciences) and analyzed by flow cytometry. The high-affinity HLA-A*02:01-binding peptide […] ([…]) was included as internal standard. Affinity data were calculated as the percentage of maximum complex stabilization, as described in [44]. The following equation was used: % of maximal stabilization = 100 x [(mean fluorescence with peptide)–(background mean fluorescence)]/[(mean fluorescence with 25 μM HBENV335-343 peptide)–(background mean fluorescence)]. Background value was obtained with cells incubated in the same conditions without peptide.
The percentage of maximal binding stabilization of these eight TcCA-2 peptides was evaluated using TAP-deficient T2 cells and different concentrations of each peptide. […] The maximal binding affinity is shown for each peptide in Table 1.
(Flow cytometry measures light scatter and fluorescence of single cells or particles in a stream.)

The test system of assay [1] is PBMCs from asymptomatic HLA-A*02:01 Chagas disease patients. The experiment in a line: HLA-A*02:01 restriction assay: peptide-pulsed K562-A2 cells as APC, IFN-γ secretion by patient PBMC. The class given is cell-based, human. Conditions: K562-A2 cells pulsed with 1 mM peptide 1 h, co-cultured 30 h with PBMC of asymptomatic (IND) patients; positive = IFN-γ at least two folds un-stimulated cells.

ALQVTNHRYL [TcCA-2_657-666]: the “% maximal stabilization” value at HLA-A*02:01 is given as 21.49%. The “Chagas disease patient: patients with positive response in relation with the total number of patients per assay” value (from here on “Chagas disease patient: patients … per assay”) in assay [1] is “Two out of 9 and 2/9”.

For the sequence AAAGDKLSL [TcCA-2_273-281], the “% maximal stabilization” value on HLA-A*02:01 amounted to 12.41%. For the same sequence, the “Chagas disease patient: patients … per assay” value in assay [1] was 1 out of 10 and 1/10.

Consider TVFDASRSTV [TcCA-2_442-451], for which, at HLA-A*02:01, the “% maximal stabilization” value is given as 24.44%. The “Chagas disease patient: patients … per assay” value in assay [1] is 2 out of 10 and 2/10.

Consider ALRNLRVFL [TcCA-2_607-615], for which, at HLA-A*02:01, the “% maximal stabilization” value is listed as 29.54%. In addition, in assay [1], the “Chagas disease patient: patients … per assay” value is 3 out of 9 and 3/9.
